Values joined by “and” are separate entries in the source; they are usually repeats but may differ in a detail not shown here. Equal values may be shown once. Where a name gives a salt, the structure may show the parent alone.
What was measured:
[1] = Duration of vomiting and retching in dog after daily subcutaneous apomorphine HCl (Example 1); format: in vivo
[2] = Take-home sexual intercourse success rate (Example 5, Phase III); format: in vivo, human
Source text: (§1) During the five-week, home-use phase, subjects were to attempt coitus at least once each week after taking a single APO tablet. After each attempt, the subject and their partner completed a Sexual Function questionnaire (See FIGS. 15 and 16) which was later evaluated and used for final statistical analysis.
(§2) For the third phase, subjects had recorded at baseline, their satisfaction,erection, number of attempts, and successful intercourse on a VAS scale (see Tables Xa-Xc, above). Evaluateable subjects first recorded a success rate, then completed VAS for erection results and satisfaction with intercourse following take-home treatment. The success rates, as shown in Tables XVa-XVb, below, were calculated for milligrams of APO as well as for micrograms per kilogram of the patient's body weight doses (males). There were four criteria for recording a success in the take-home phase. […] Several evaluations of the data were made including the male and female responses to treatments via questionnaires (see FIGS. 15 and 16).

[3] = Take-home intercourse satisfaction, VAS questionnaire question 3 (Example 5, Phase III); format: in vivo, human; details: for Satisfaction Percent Change from Baseline, LSMEAN / Satisfaction Percent Change from Baseline, MEAN: MALE
Source text: as §1, §2
(§3) Tables XVIIa--XVIId, below, show the statistical results of phase III with respect to Rigiscan™ results (a and b) and intercourse satisfaction (c and d) based on question 1 and question 3, respectively, from the completed questionnaires (see FIGS. 15 and 16). […] The maximum improvement from baseline were 56% in males and 59% in females. The mean improvement were 29% in males and 34% in females. […] The mean improvements were 34% in females and 45% in males.

[4] = Side effects after subcutaneous, sublingual and oral apomorphine HCl in dog (Example 3)
[5] = single bolus subcutaneous injection, mammals; cited from earlier work
[6] = Take-home erection results, VAS questionnaire question 1 (Example 5, Phase III); format: in vivo, human; details: for Erection Results (Maximum) Percent Change from Baseline, LSMEAN: all sites; for Erection Results (Maximum) Percent Change from Baseline, MEAN: all doses, site #1, #2, #3, #4, listed as APO
Source text: as §1, §2, §3

[7] = Number of dogs acclimatized to retching/vomiting; blood pressure and heart rate (Example 2); format: in vivo, dog
Procedure: This study provides a different view of data recorded in Example 1.
Observations were made at three different dosage levels, 0.04, 0.1 and 0.4 mg/kg/day. No dose escalation was attempted in this study. A group of five dogs was used for tests at each dosage level. The number of dogs in each dosage group with a retching or vomiting episode in each post-administration time period was recorded for daily administration over about 180 days. Ten day averages were calculated and plotted (see FIGS. 3 through 6).
The blood pressure and heart rates of an untreated group of dogs was evaluated for comparison purposes.

[8] = Penile erectile response ([…] score) with erotic and neutral videos (Example 5); format: in vivo, human; details: for Total RIGISCAN Score, Erotic 1: N = 31-36, ** significantly higher than placebo 1 and 2
Procedure: Each of the selected subjects' penile erectile response (measured with the […]™ ambulatory tumescence monitor) was evaluated using the scoring system as set out in Table IX, below.
The combining of the scores of A, B, C, and D from Table IX yields a total score for each subject. A total score of less than 16 for any individual subject indicates erectile dysfunction.
Patients not experiencing nausea or any other significant adverse effects within fifteen minutes post-dosing with APO or placebo viewed segments of standardized erotic videos to provide sexual stimulation. […] The duration of the testing session for each dose level lasted between 45 and 60 minutes.
This aim was accomplished during the first two phases of the study in which subjects were attached to the […]™ monitor. Subjects were initially treated with placebo, followed by APO 4, 6, and 8 mg. tablets with a placebo tablet randomly interspersed in the treatment.

[9] = 100-400 μg/kg, up to four days, primates; cited from earlier work

Which “time to acclimatization (retching and vomiting)” value ([1]; 0.4 mg/kg/day s.c.) does the source give for CN1CCc2cccc3c2[C@H]1Cc1ccc(O)c(O)c1-3 [apomorphine HCl] here?
Its value is “about 10 days”.

What about the “effect of escalation on vomiting/retching” value ([1]; 0.8 mg/kg/day after 21 days at 0.4 mg/kg/day) of the same compound?
Its value is “no evidence of an increase in vomiting/retching”.

What about the “wash out period required to establish homeostasis” value ([1]; after CNS supersensitivity) of the same compound?
Its value is 4 to 6 weeks.

What about the “effect of increasing dose by 100% of the acclimation dose on duration” value ([1]; after acclimation established) of the same compound?
Its value is “no corresponding increase in the duration of retching and vomiting”.

And the movement disorders ([1]; dose reduced from 1.2 to 0.8 mg/kg/day)?
Its movement disorders is “movement disorders were again observed”.

What about the “average duration of retching/vomiting period” value ([1]; following daily administration) of the same compound?
Its value is “about 5 minutes”.

What about the “average duration of retching/vomiting period” value ([1]; following initial dose) of the same compound?
The value was “about 30 minutes”.

What about the “time to acclimatization (retching and vomiting)” value ([1]; lower doses (0.05 mg/kg start), s.c. daily) of the same compound?
Its value is at most 3 days.

And the “effect of challenge on duration of vomiting” value ([1]; lower doses, after 12 days, dose 100% greater than acclimatized dose)?
The value was “Only a small increase in the duration of vomiting”.

And the “Sexual Intercourse Success Rate” value ([2]; Female, 6 mg, listed as APO)?
Its value is 73.3% and 73%.

What about the “Sexual Intercourse Success Rate” value ([2]; Female, 35-50 μg/kg) of the same compound?
Its value is 60.0%.

What about the “Sexual Intercourse Success Rate” value ([2]; Female, 50-74 μg/kg, listed as APO) of the same compound?
Its value is 82%.

And the “Sexual Intercourse Success Rate” value ([2]; Female, Overall)?
Its value is 70.0%.

And the “Sexual Intercourse Success Rate” value ([2]; Male, 6 mg, listed as APO)?
The value was 73.3% and 73%.

And the “Sexual Intercourse Success Rate” value ([2]; Male, 35-50 μg/kg)?
Its value is 80.0%.

What about the “Sexual Intercourse Success Rate” value ([2]; Male, 50-74 μg/kg, listed as APO) of the same compound?
The value was 73%.

And the “Sexual Intercourse Success Rate” value ([2]; Male, Overall)?
Its value is 70.0%.

What about the overall success rate ([2]; whole study, baseline rate 28%, listed as APO) of the same compound?
Its overall success rate is 70% and 72%.

What about the “Satisfaction (Maximum) Change from Baseline, LSMEAN” value ([3]; FEMALE, 4 mg, all sites) of the same compound?
Its value is 41.86.

And the “Satisfaction (Maximum) Change from Baseline, LSMEAN” value ([3]; FEMALE, 6 mg, all sites)?
The value was 40.60.

And the “Satisfaction (Maximum) Change from Baseline, LSMEAN” value ([3]; FEMALE, 8 mg, all sites)?
The value was 62.33.

What about the “Satisfaction (Maximum) Change from Baseline, MEAN” value ([3]; FEMALE, all doses, site #1, #2, #3, #4, listed as APO) of the same compound?
The value was 57.00 and 37.75 and 33.29.

And the “Satisfaction Percent Change from Baseline, LSMEAN” value ([3]; 4 mg, all sites)?
Its value is 49.14%.

And the “Satisfaction Percent Change from Baseline, LSMEAN” value ([3]; 6 mg, all sites)?
The value was 51.47%.

And the “Satisfaction Percent Change from Baseline, MEAN” value ([3]; 6 mg, all sites, site #1, #2, #3, #4, listed as APO)?
Its value is 51.47% and 40.60% and 59.50% and 54.50% and 58.00%.

What about the “Satisfaction Percent Change from Baseline, LSMEAN” value ([3]; 8 mg, all sites) of the same compound?
Its value is 56.57%.

What about the “Satisfaction Percent Change from Baseline, MEAN” value ([3]; all doses, b893 site #1, b897 #2, b901 #3, b905 #4, listed as APO) of the same compound?
The value was 58.00% and 48.50% and 49.56% and 50.00%.

And the “VAS satisfaction, mean improvement” value ([3]; females)?
Its value is 34%.

What about the “VAS satisfaction, maximum improvement from baseline” value ([3]; females, 8 mg) of the same compound?
The value was 62%.

And the “VAS satisfaction, mean improvement” value ([3]; males)?
Its value is 45%.

And the “VAS satisfaction, maximum improvement from baseline” value ([3]; males, 8 mg)?
The value was 57%.

And the “Average Severity” value ([4]; oral 0.2 mg/kg)?
The value was 0.00%.

What about the “number of animals having nausea/vomiting” value ([4]; oral 0.2 mg/kg, 8 min, 4 animals per group) of the same compound?
The value was 0.

And the “number of animals having nausea/vomiting” value ([4]; oral 0.2 mg/kg, 15 min)?
Its value is 0.

And the “number of animals having nausea/vomiting” value ([4]; oral 0.2 mg/kg, 30 min)?
Its value is 0.

And the “Average Severity” value ([4]; subcutaneous 0.04 mg/kg)?
Its value is 150.00%.

And the “number of animals having nausea/vomiting” value ([4]; subcutaneous 0.04 mg/kg, 8 min, 4 animals per group)?
Its value is 4.

And the “number of animals having nausea/vomiting” value ([4]; subcutaneous 0.04 mg/kg, 15 min)?
The value was 2.

And the “number of animals having nausea/vomiting” value ([4]; subcutaneous 0.04 mg/kg, 30 min)?
Its value is 0.

What about the “Average Severity” value ([4]; sublingual 0.2 mg/kg) of the same compound?
The value was 50.00%.

What about the “number of animals having nausea/vomiting” value ([4]; sublingual 0.2 mg/kg, 8 min, 4 animals per group) of the same compound?
Its value is 0.

And the “number of animals having nausea/vomiting” value ([4]; sublingual 0.2 mg/kg, 15 min)?
The value was 1.

What about the “number of animals having nausea/vomiting” value ([4]; sublingual 0.2 mg/kg, 30 min) of the same compound?
The value was 1.

And the tolerated dose [5]?
Its tolerated dose is “up to 13 mg/kg”.

What about the “Erection Results (Maximum) Percent Change from Baseline, LSMEAN” value ([6]; FEMALE, 4 mg) of the same compound?
The value was 33.57%.

And the “Erection Results (Maximum) Percent Change from Baseline, LSMEAN” value ([6]; FEMALE, 6 mg)?
The value was 45.00%.

What about the “Erection Results (Maximum) Percent Change from Baseline, LSMEAN” value ([6]; FEMALE, 8 mg) of the same compound?
The value was 59.00%.

What about the “Erection Results (Maximum) Percent Change from Baseline, MEAN” value ([6]; FEMALE) of the same compound?
Its value is 52.56% and 41.25% and 46.50% and 36.29%.

And the “Erection Results (Maximum) Percent Change from Baseline, LSMEAN” value ([6]; MALE, 4 mg)?
Its value is 55.71%.

What about the “Erection Results (Maximum) Percent Change from Baseline, LSMEAN” value ([6]; MALE, 6 mg) of the same compound?
Its value is 42.80%.

What about the “Erection Results (Maximum) Percent Change from Baseline, LSMEAN” value ([6]; MALE, 8 mg) of the same compound?
Its value is 31.86%.

What about the “Erection Results (Maximum) Percent Change from Baseline, MEAN” value ([6]; MALE) of the same compound?
The value was 52.22% and 57.00% and 36.22% and 33.00%.

And the “erection rigidity, mean improvement” value ([6]; females)?
The value was 34%.

And the “erection rigidity, maximum improvement from baseline” value ([6]; females (best at 8 mg))?
Its value is 59%.

And the “erection rigidity, mean improvement” value ([6]; males)?
Its value is 29%.

What about the “erection rigidity, maximum improvement from baseline” value ([6]; males (best at 4 mg)) of the same compound?
Its value is 56%.

What about the “daily treatment needed for 80 percent effective acclimation” value ([7]; 0.4 mg/kg/day s.c.) of the same compound?
The value was “about 3 months”.

What about the “net changes in blood pressure” value ([7]; after 5 months chronic treatment, vs untreated controls) of the same compound?
Its value is “not significantly different from the controls”.

And the “heart rate after administration” value ([7]; after 5 months chronic treatment, 0.04, 0.1, 0.4 mg/kg/day)?
Its value is “tachycardia sometimes occurs”.

And the bradycardia ([7]; initially, lost by acclimation)?
Its bradycardia is “badycardia was reported in some subjects”.

What about the “RIGISCAN score, erotic #1, comparison in words” value ([8]; 4 mg, Site #1) of the same compound?
The value was “slightly lower”.

And the “Penile Measurements (Maximum Increases), LSMEAN, NEUTRAL” value ([8]; 4 mg, b698 all sites, b704 site #1, b710 #2, b716 #3, b722 #4, listed as APO)?
The value was 8.70.

And the “Total RIGISCAN Score, Erotic 1” value ([8]; 6 mg)?
The value was 17.09 ± 1.64.

What about the “Penile Measurements (Maximum Increases), MEAN, NEUTRAL” value ([8]; 6 mg, b699 all sites, b705 site #1, b711 #2, b717 #3, b723 #4, listed as APO) of the same compound?
The value was 9.60.

What about the “Total RIGISCAN Score, Erotic 1” value ([8]; 8 mg) of the same compound?
Its value is 19.84 ± 1.61.

What about the “Total RIGISCAN Score, Neutral” value ([8]; 8 mg, N = 41-48, **) of the same compound?
The value was 11.95 ± 1.37.

What about the “Penile Measurements (Maximum increase), Mean, EROTIC #1” value ([8]; 8 mg, all sites, site #1, #2, #4, listed as APO) of the same compound?
The value was 19.84 and 15.60 and 25.00.

And the “RIGISCAN scores, treatment effect vs second placebo in words” value ([8]; 4, 6, and 8 mg)?
Its value is “most of the treatment effects were significant to highly significant compared to the second placebo”.

What about the “RIGISCAN scores, treatment effect in words” value ([8]; 4, 6, and 8 mg vs initial placebo) of the same compound?
Its value is “significant to highly significant”.

And the “RIGISCAN scores for penile increases in words” value ([8]; active doses, each of four sites, neutral and erotic sequences)?
Its value is “improved significantly”.

What about the “RIGISCAN reading, effective in causing erections” value ([8]; all doses, erotic stimulation) of the same compound?
The value was “greater than or equal to 15”.

And the “adverse effects of multiple doses” value [9]?
Its value is “without major adverse effects”.
